BigSolDB 2.1

O=C1c2ccccc2C(=O)N1O
solubility (mole fraction)
Settings	278.15 K	283.15 K	288.15 K	293.15 K	298.15 K	303.15 K	308.15 K	313.15 K	318.15 K	323.15 K
in 1,4-dioxane	–	–	0.0181	0.0204	0.0231	0.0255	0.0286	0.0319	0.0354	0.0393
in 2-ethoxyethanol	0.016	0.0182	0.0207	0.0233	0.026	0.0294	0.0327	0.0364	0.0404	0.0447
in 2-methoxyethanol	0.0254	0.028	0.0311	0.0346	0.0381	0.0421	0.0466	0.051	0.056	0.062
in acetone	0.00744	0.00861	0.00981	0.0111	0.0126	0.0144	0.0161	0.0186	0.0202	0.0222
in acetonitrile	0.00232	0.00268	0.00312	0.0036	0.00414	0.00476	0.00543	0.00618	0.00701	0.0079
in ethanol	0.00307	0.00366	0.00442	0.00526	0.00614	0.00729	0.00855	0.01	0.0117	0.0138
in ethyl acetate	0.00214	0.00252	0.00301	0.00353	0.00399	0.00465	0.00541	0.0062	0.00705	0.00807
in methanol	0.00354	0.00412	0.00484	0.00566	0.00657	0.0078	0.00903	0.0105	0.0123	0.0143
in methyl acetate	0.00303	0.00342	0.00394	0.00462	0.00528	0.00618	0.00696	0.00794	0.00908	0.0104
in n-propanol	0.00214	0.00259	0.00321	0.00388	0.00467	0.00568	0.00688	0.00834	0.00992	0.0119
in n-propyl acetate	0.0017	0.00202	0.00235	0.00281	0.00329	0.00381	0.00442	0.00512	0.00594	0.00679
